Experimental data as given in ChEMBL document CHEMBL3751755, “Developing steroidal aromatase inhibitors-an effective armament to win the battle against breast cancer” (Eur J Med Chem, 2015).

Experiments:
Aromatase [1] = molecular target: T1, Aromatase (Homo sapiens, UniProt P11511); test: Inhibition of human aromatase extracted from placental microsomes using [1-3H]androstenedione as substrate at […]
T1 sequence (P11511 whole entry): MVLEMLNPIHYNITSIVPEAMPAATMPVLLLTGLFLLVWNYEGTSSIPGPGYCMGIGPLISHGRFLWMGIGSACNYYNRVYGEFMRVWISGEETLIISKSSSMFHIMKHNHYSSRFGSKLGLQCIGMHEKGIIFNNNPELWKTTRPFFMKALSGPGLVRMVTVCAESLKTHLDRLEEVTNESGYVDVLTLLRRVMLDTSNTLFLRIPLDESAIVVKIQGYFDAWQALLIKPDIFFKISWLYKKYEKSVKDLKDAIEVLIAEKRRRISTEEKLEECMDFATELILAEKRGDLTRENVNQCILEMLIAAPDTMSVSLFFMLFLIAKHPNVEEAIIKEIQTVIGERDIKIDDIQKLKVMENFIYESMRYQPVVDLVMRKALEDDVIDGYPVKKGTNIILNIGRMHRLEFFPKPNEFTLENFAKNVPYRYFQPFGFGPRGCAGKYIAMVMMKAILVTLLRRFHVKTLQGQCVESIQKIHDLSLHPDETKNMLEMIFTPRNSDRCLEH

Aromatase [2] = molecular target: T1, Aromatase; test: Inhibition of aromatase (unknown origin); design: inhibition (INH): concentration or dose not given beside the values; conditions: human
Aromatase [3] = molecular target: T2, Aromatase (Rattus norvegicus, UniProt P22443); test: Competitive inhibition of aromatase in ovarian fraction extracted from PMSG pretreated Wistar rat by double reciprocal plot analysis in presence of testosterone
T2 sequence (P22443 whole entry): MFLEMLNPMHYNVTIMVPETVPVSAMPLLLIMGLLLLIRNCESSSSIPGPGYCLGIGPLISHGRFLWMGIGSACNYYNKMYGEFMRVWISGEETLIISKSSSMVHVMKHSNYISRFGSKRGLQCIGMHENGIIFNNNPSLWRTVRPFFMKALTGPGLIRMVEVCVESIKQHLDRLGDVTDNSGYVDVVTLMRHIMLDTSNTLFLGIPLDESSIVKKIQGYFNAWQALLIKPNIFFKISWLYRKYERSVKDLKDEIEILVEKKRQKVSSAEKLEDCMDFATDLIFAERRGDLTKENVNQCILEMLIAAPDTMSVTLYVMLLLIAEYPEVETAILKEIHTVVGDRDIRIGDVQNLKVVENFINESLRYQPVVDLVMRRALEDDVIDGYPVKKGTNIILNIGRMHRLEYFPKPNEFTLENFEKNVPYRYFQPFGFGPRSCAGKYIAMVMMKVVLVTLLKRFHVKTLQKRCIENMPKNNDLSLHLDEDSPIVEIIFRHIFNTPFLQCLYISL

Aromatase [4] = molecular target: T1, Aromatase; test: Competitive inhibition of human aromatase extracted from placental microsomes by Dixon plot analysis in presence of [1,2-3H]androstenedione
Aromatase [5] = molecular target: T2, Aromatase; test: Inhibition of aromatase in denucleated ovarian fraction extracted from PMSG pretreated Wistar rat by using testosterone as substrate after 15 mins by radio immuno assay
Aromatase [6] = molecular target: T1, Aromatase; test: Irreversible inhibition of human aromatase extracted from placental microsomes; conditions: read-out: Ki(app)
Aromatase [7] = molecular target: T1, Aromatase; test: Inhibition of human aromatase extracted from placental microsomes using [1beta-3H]androstenedione as substrate after 20 mins by radiometric assay
[8] = Antitumor activity against NMU-induced mammary tumor in rat; assay type: functional
Aromatase [9] = molecular target: T2, Aromatase; test: Inhibition of aromatase in denucleated ovarian fraction extracted from PMSG pretreated Wistar rat by using testosterone as substrate at 1 uM
Aromatase [10] = molecular target: T2, Aromatase; test: Inhibition of aromatase in denucleated ovarian fraction extracted from PMSG pretreated Wistar rat using testosterone as substrate at 50 uM by radioimmuno assay
Aromatase [11] = molecular target: T1, Aromatase; test: Inhibition of aromatase (unknown origin) at 50 uM
Aromatase [12] = molecular target: T1, Aromatase; test: Inhibition of human aromatase extracted from placental microsomes at 520 nM after 10 mins
Aromatase [13] = molecular target: T1, Aromatase; test: Inhibition of human aromatase extracted from placental microsomes using 4-[14C]androstenedione/androstenedione as substrate assessed as estrogen formation after 30 mins in NADPH-generating system; conditions: 0.5 h
Aromatase [14] = molecular target: T2, Aromatase; test: Inhibition of rat aromatase extracted from PMSG-primed ovarian fraction using 4-[14C]androstenedione/androstenedione as substrate assessed as estrogen formation after 30 mins in NADPH-generating system; conditions: 0.5 h
Aromatase [15] = molecular target: T1, Aromatase; test: Inhibition of human aromatase extracted from placental microsomes using [1-3H]androstenedione as substrate
Aromatase [16] = molecular target: T1, Aromatase; test: Inhibition of human aromatase extracted from placental microsomes using [1beta-3H]androstenedione as substrate after 15 mins by scintillation counting analysis
Aromatase [17] = molecular target: T1, Aromatase
Aromatase [18] = molecular target: T1, Aromatase; test: Time dependent inactivation of human aromatase extracted from placental microsomes using [1,2-3H]androst-4-ene-3,17-dione
Aromatase [19] = molecular target: T1, Aromatase; test: Inhibition of human aromatase extracted from placental microsomes using [1,2-3H]androstenedione as substrate after 20 mins by scintillation counting analysis
Aromatase [20] = molecular target: T1, Aromatase; test: Inhibition of human aromatase extracted from placental microsomes using [1beta-3H]androstenedione as substrate after 20 mins
Aromatase [21] = molecular target: T1, Aromatase; remark: listed apart in the source
Aromatase [22] = molecular target: T1, Aromatase; test: Inhibition of human aromatase extracted from placental microsomes using [1beta,2beta-3H]androstenedione as substrate
Aromatase [23] = molecular target: T1, Aromatase; test: Time dependent inhibition of human aromatase extracted from placental microsomes using [1beta,2beta-3H]androstenedione as substrate by scintillation counting analysis

## C[C@]12CCC(=O)C=C1C[C@@H](Sc1ccc(Br)cc1)[C@@H]1[C@@H]2CC[C@]2(C)C(=O)CC[C@@H]12
Aromatase [1]
  inhibition at […]: 45%

## CC(=O)[C@@]1(C)CC[C@H]2[C@@H](CCC3=CC(=O)CC[C@@]32C)C1CC#N (some centres undefined)
Aromatase [2]
  inhibition (INH): 46.5%
Aromatase [3]
  Ki: 270 nM

## C[C@]12CC[C@H]3[C@@H](CCC4=CCCC[C@@]43CO)[C@@H]1CCC2=O
Aromatase [4]
  Ki: 12.5 nM

## C[C@@H]1OC(=O)C[C@H]2[C@@H]3C=C[C@H]4C[C@@H](O)CC[C@]4(C)[C@H]3CC[C@]12C
Aromatase [5]
  IC50: 250 nM

## C[C@]12CCC(=O)C(O)=C1CC[C@@H]1[C@@H]2CC[C@]2(C)C(=O)CC[C@@H]12 [FORMESTANE]
Aromatase [6]
  Ki: 43 nM
Aromatase [7]
  IC50: 1200 nM
[8]
  Activity: 67%
Aromatase [9]
  inhibition at 1 µM: 99.2%

## C[C@]12CC[C@@H]3c4ccc(OCc5ccccc5)cc4CC[C@H]3[C@@H]1CC(=O)OC2
Aromatase [10]
  inhibition at 50 µM: 26.7%

## C[C@]12CCC(=O)C(O)=C1C=C[C@@H]1[C@@H]2CC[C@]2(C)/C(=C/c3ccccn3)CC[C@@H]12
Aromatase [11]
  inhibition at 50 µM: 92%

## C[C@]12CCC(=O)C=C1CC[C@@H]1[C@@H]2CC[C@]2(C)C(=O)[C@H](Br)C[C@@H]12
Aromatase [12]
  inhibition at […]: 95%

## C[C@]12CCC(=O)C(O)=C1C=C[C@@H]1[C@@H]2CC[C@]2(C)C(=O)CC[C@@H]12
Aromatase [13]
  inhibition (INH): 30%
Aromatase [14]
  inhibition (INH): 30%

## C[C@@H]1OC(=O)C[C@H]2[C@@H]3CCC4=CC(=O)CC[C@]4(C)[C@H]3CC[C@]12C
Aromatase [5]
  IC50: 280 nM

## C=C1C=C2CC[C@@H]3[C@H](CC[C@]4(C)C(=O)CC[C@@H]34)[C@@]2(C=O)CC1
Aromatase [15]
  inhibition (INH): 50%

## C[C@]12CCC(=O)C=C1[C@@H](Br)C[C@@H]1[C@@H]2CC[C@]2(C)C(=O)CC[C@@H]12
Aromatase [12]
  inhibition at […]: 45%

## C[C@]12CC[C@H](O)C(N=[N+]=[N-])=C1CC[C@@H]1[C@@H]2CC[C@]2(C)/C(=N/O)CC[C@@H]12
Aromatase [16]
  INH: 32.8%

## C[C@]12CCC(=O)C(F)=C1CC[C@@H]1[C@@H]2CC[C@]2(C)C(=O)CC[C@@H]12
[8]
  Activity: 44%
Aromatase [17]
  Ki: 15 nM

## C[C@]12CC[C@H]3[C@@H](CCC4=CC(=O)CC[C@@]43C(F)F)[C@@H]1CCC2=O
Aromatase [18]
  Ki: 1000 nM

## C[C@]12CCC(=O)C=C1[C@@H](OC(=O)CBr)C[C@@H]1[C@@H]2CC[C@]2(C)C(=O)CC[C@@H]12
Aromatase [19]
  IC50: 2800 nM

## C[C@]12CC[C@H]3[C@@H](CCC4=C(F)C(=O)CC[C@@H]43)[C@@H]1CCC2=O
Aromatase [17]
  Ki: 90 nM

## C[C@]12CCC(=O)C(c3ccc(OS(N)(=O)=O)cc3)=C1CC[C@@H]1[C@@H]2CC[C@]2(C)C(=O)CC[C@@H]12
Aromatase [20]
  IC50: 990 nM
Aromatase [21]
  Ki: 97 nM

## C[C@]12C=CC(=O)C(O)=C1CC[C@@H]1[C@@H]2CC[C@]2(C)C(=O)CC[C@@H]12
Aromatase [13]
  inhibition (INH): 30%
Aromatase [14]
  inhibition (INH): 30%

## CSCC[C@]12CCC(=O)C=C1CC[C@@H]1C2=CC[C@]2(C)C(=O)CC[C@@H]12
Aromatase [22]
  IC50: 12 nM

## C[C@]12CC[C@H]3[C@@H](CCC4=CC(=O)CC[C@@]43CS)[C@@H]1CCC2=O
Aromatase [23]
  Ki: 34 nM
